The target of data set [1] is T1, Galectin-8 (Homo sapiens, UniProt O00214).
T1 sequence (O00214 whole entry): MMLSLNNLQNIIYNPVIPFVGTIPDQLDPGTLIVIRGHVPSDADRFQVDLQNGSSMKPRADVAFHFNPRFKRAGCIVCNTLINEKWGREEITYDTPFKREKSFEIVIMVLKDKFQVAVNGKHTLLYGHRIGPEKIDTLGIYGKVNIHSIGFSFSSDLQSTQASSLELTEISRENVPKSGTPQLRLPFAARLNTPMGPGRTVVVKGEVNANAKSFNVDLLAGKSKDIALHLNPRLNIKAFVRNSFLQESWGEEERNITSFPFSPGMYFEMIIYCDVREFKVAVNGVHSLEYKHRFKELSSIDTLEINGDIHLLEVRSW
Kind of data set: Binding affinity to human galectin-8C expressed in Escherichia coli BL21(DE3) using 3,3'-dideoxy-3-[4-(fluorescein-5-yl-carbonylaminomethyl)-1H-1,2,3-triazol-1-y1]-3'-(3,5-dimethoxy-benzamido)-1,1'-sulfanediyl-di-beta-D-galactopyranoside as fluorescent probe by fluorescence polarization analysis. On the technique in general: In fluorescence polarisation assays a small probe gives low polarisation when free and higher when bound to something large.

Data set [2] has as its system LAX40. Kind of data set: Cytotoxicity against human LAX40 patient-derived BCP-ALL cells co-cultured with irradiated OP9 stromal cells assessed as reduction in cell viability at 100 uM for 1 to 3 days by trypan blue staining based assay. Format: functional. To be noted: time 1-3 day, TDE = time-dependent effect.
Data set [3] deals with LAX40. Kind of data set: Cytostatic activity against human LAX40 patient-derived BCP-ALL cells co-cultured with irradiated OP9 stromal cells assessed as reduction in cell viability at 100 uM for 1 to 3 days by trypan blue staining based assay. Format: functional. To be noted: time 1-3 day, TDE = time-dependent effect.
Data set [4] is described as follows: Cytotoxicity against human US7 patient-derived BCP-ALL cells co-cultured with irradiated OP9 stromal cells assessed as reduction in cell viability incubated for 24 hrs by Alamar blue assay. Format: functional, cell-based. The settings on record: US7, light or radiation study. In general terms: Alamar Blue is a resazurin reagent that responds to reducing activity.

The next data set has as its target Galectin-1 (Homo sapiens, UniProt P09382). Kind of data set: Binding affinity to human galectin-1 using 3,3'-dideoxy-3-[4-(fluorescein-5-yl-carbonylaminomethyl)-1H-1,2,3-triazol-1-y1]-3'.(3,5-dimethoxy-benzamido)-1,1'-sulfanediyl-di-beta-D-galactopyranoside as fluorescent probe by fluorescence polarization analysis.
For data set [5], the target named is T2, Galectin-4 (Homo sapiens, UniProt P56470).
T2 sequence (P56470 whole entry): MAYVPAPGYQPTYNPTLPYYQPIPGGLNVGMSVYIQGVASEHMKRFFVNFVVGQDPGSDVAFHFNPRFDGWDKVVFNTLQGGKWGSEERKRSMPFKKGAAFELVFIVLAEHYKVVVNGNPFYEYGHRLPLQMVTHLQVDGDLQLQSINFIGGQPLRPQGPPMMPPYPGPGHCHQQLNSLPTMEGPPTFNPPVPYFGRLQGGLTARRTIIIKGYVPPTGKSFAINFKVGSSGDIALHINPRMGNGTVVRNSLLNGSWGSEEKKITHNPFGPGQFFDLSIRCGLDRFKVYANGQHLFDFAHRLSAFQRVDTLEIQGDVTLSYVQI
The data set is described as follows: Binding affinity to human galectin-4N expressed in Escherichia coli BL21 using 3,3'-dideoxy-3-[4-(fluorescein-5-yl-carbonylaminomethyl)-1H-1,2,3-triazol-1-y1]-3'-(3,5-dimethoxy-benzamido)-1,1'-sulfanediyl-di-beta-D-galactopyranoside as fluorescent probe by fluorescence polarization analysis.

The target in data set [6] is T2, Galectin-4.
In data set [7] the target is T3, Galectin-8 (Homo sapiens) (UniProt O00214).
T3 sequence (whole entry): T1 sequence (O00214 whole entry)
Kind of data set: Antagonist activity against human galectin-8N assessed as inhibition of galectin-8N at 2 mM by fluorescence polarization analysis relative to control.

The target in another data set is Galectin-3 (Homo sapiens, UniProt P17931).
Data set [8] concerns the target T4, Galectin-4 (Homo sapiens) (UniProt P56470).
T4 sequence (whole entry): T2 sequence (P56470 whole entry)
Kind of data set: Antagonist activity against human galectin-4N expressed in Escherichia coli BL21 assessed as inhibition of galectin-4N at 2 mM using 3,3'-dideoxy-3-[4-(fluorescein-5-yl-carbonylaminomethyl)-1H-1,2,3-triazol-1-y1]-3'-(3,5-dimethoxy-benzamido)-1,1'-sulfanediyl-di-beta-D-galactopyranoside as fluorescent probe by fluorescence polarization analysis relative to control.

Data set [9] concerns the target T1, Galectin-8. Kind of data set: Binding affinity to human galectin-8N using 3,3'-dideoxy-3-[4-(fluorescein-5-yl-carbonylaminomethyl)-1H-1,2,3-triazol-1-y1]-3'.(3,5-dimethoxy-benzamido)-1,1'-sulfanediyl-di-beta-D-galactopyranoside as fluorescent probe by fluorescence polarization analysis.
Another data set has as its system US7. Kind of data set: Induction of cell death in human US7 patient-derived BCP-ALL cells assessed as reduction in viable cells at 0.5 to 800 uM incubated for 24 hrs by Alamar blue assay. Format: functional, cell-based. The settings on record: dose 0.5-800 µM, DDE = dose-dependent effect.
A short description of data set [10]: Binding affinity to human galectin-1 C3S mutant by fluorescence polarization analysis.
Data set [11] is described as follows: Cytotoxicity against mouse bone marrow-derived stromal OP9 cells assessed as live cells at 100 uM measured after 3 days by trypan blue staining based assay relative to control. Format: toxicity, cell-based. The settings on record: time 3 day, read-out: Activity.
The next data set concerns TXL2. The data set is described as follows: Induction of cell death in human TXL2 patient-derived BCP-ALL cells assessed as reduction in viable cells at 0.5 to 800 uM incubated for 24 hrs by Alamar blue assay. Format: functional, cell-based. To be noted: dose 0.5-800 µM, DDE = dose-dependent effect.

The values below come from ChEMBL document CHEMBL5154868, “Novel Selective Galectin-3 Antagonists Are Cytotoxic to Acute Lymphoblastic Leukemia” (J Med Chem, 2022).

A value given as a limit tells only on which side of the number the result lay.

Chain of Galectin-1 (P09382 whole entry): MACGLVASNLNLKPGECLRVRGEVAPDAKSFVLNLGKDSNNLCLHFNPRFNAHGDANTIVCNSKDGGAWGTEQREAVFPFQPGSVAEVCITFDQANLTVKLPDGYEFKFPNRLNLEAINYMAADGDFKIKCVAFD
Chain of Galectin-3 (P17931 whole entry): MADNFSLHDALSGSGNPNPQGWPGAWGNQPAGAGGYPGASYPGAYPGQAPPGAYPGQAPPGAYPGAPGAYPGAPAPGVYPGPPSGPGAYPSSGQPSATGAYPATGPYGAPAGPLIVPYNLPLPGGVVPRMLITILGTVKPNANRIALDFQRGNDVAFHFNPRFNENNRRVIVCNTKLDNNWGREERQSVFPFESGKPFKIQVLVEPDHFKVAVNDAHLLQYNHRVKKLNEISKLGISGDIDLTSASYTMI
Description for Galectin-3: Binding affinity to human galectin-3 using 2-(fluorescein-5/6-yl-carbonylamino)-ethyl 2-acetamido-2-deoxy-alpha-D-galactopyranosyl-(1-3)-[alpha-L-fucopyranosyl-(1-2)]-beta-D-galactopyranosyl-(1-4)-beta-D-glucopyranoside by fluorescence polarization analysis

What is called Kd is the free concentration of one partner at which half of the binding sites on the other are occupied at equilibrium, for simple one-to-one binding. A higher Kd goes with weaker binding. In general, IC50 refers to the concentration that gives 50% inhibition. One may read the inhibition as the drop in the measured response relative to a control, in per cent. Consider `CO[C@@H]1O[C@H](CO)[C@H](O)[C@H](OC(=O)c2ccc(C)cc2)[C@@H]1OC(=O)c1ccc(C(F)(F)F)cc1[N+](=O)[O-]`, for which the Kd on Galectin-8 [1] is 1900 µM; on Galectin-1 it was 4000 µM; on Galectin-4 [5] it was 1400 µM; at Galectin-4 [6], 40 µM. For the same compound, the Activity entry in the data set with LAX40 [2] and in the data set on LAX40 [3] was “Tde” in each case. The IC50 in data set [4] came to 83 µM. Also, in data set [7], the inhibition is less than 20%.
As to `CO[C@@H]1O[C@H](CO)[C@H](O)[C@H](OC(=O)c2ccc(C)cc2)[C@@H]1OC(C)=O`, the Kd at Galectin-1 was 4100 µM; on Galectin-3, 420 µM; at Galectin-4 [6], 2900 µM. For the same compound, the inhibition in [8] and in data set [7] was less than 20% throughout.
On to `CO[C@@H]1O[C@H](CO)[C@H](O)[C@H](OC(=O)c2ccc(C)cc2)[C@@H]1OC(=O)c1ccc(Cl)cc1[N+](=O)[O-]`, for which the Kd at Galectin-8 [9] amounted to 4000 µM; at Galectin-8 [1], 450 µM; on Galectin-1, 1400 µM; at Galectin-4 [5], 250 µM; at Galectin-4 [6], 18 µM. Besides, the half-maximal inhibitory concentration (IC50) in data set [4] was found to be 128 µM.
`CO[C@@H]1O[C@H](CO)[C@H](O)[C@H](OC(=O)c2ccc(C)cc2)[C@@H]1OC(=O)c1cccc([N+](=O)[O-])c1`: the Kd at Galectin-8 [1] is 4000 µM; on Galectin-1 it was 2700 µM; on Galectin-3, 130 µM; on Galectin-4 [5], 1400 µM; on Galectin-4 [6], 630 µM. In addition, the 50% inhibitory concentration (IC50) in [4] amounted to 138 µM. The inhibition in data set [7] was less than 20%.
Consider `CO[C@@H]1O[C@H](CO)[C@H](O)[C@H](OC(=O)c2ccc(C)cc2)[C@@H]1OC(=O)c1ccc(F)cc1[N+](=O)[O-]`, for which the Kd worked out at 900 µM on Galectin-8 [1], 2100 µM at Galectin-1, 710 µM at Galectin-4 [5] and 6.5 µM on Galectin-4 [6]. For the same compound, the IC50 in data set [4] was 150 µM. Also, the inhibition in data set [7] was less than 20%.
Turning to `CO[C@@H]1O[C@H](CO)[C@H](O)[C@H](OC(=O)c2ccc(C)cc2)[C@@H]1OC(=O)c1ccccc1[N+](=O)[O-]`, the Activity entry in the data set with US7 is “Dde”; in the data set on LAX40 [2] it was “Tde”; with LAX40 [3] it was “Tde”; with TXL2 it was “Dde”. Besides, the values for the Kd (in [10]; at Galectin-4 [5]; at Galectin-4 [6]) were 1800 µM, 440 µM and 48 µM, respectively. For the same compound, the viability at 72 h, 100 µM in [11] was not below 65%. Also, the IC50 in data set [4] was found to be 307 µM. For the same compound, the inhibition in [7] is less than 20%.
